This is an account of results in US4359583A, “Antibiotics TM-531 B and TM-531 C” (Taisho Pharmaceutical Co., Ltd., priority 1980, dated 1982).

One data set relates to gram-negative bacteria. Kind of data set: Physiological properties: growth inhibition. It is filed as cell-based. The settings on record: in words.
Another data set has as its system Micrococcus luteus NIHJ. Put plainly: MIC, antibacterial activity on heart infusion agar. Format: cell-based. The settings on record: inoculum 10^6 CFU/ml. The protocol:
(§1) Using heart infusion agar as a medium the MIC (minimum inhibition concentration) of Antibiotics TM-531 B and TM-531 C against various bacteria were measured using an inoculum size of 10^6 CFU/ml, to determine its antibacterial activity.

For data set [1], the system named is Escherichia coli NIHJ C-2. Put plainly: MIC, antibacterial activity on heart infusion agar. The settings on record: inoculum 10^6 CFU/ml. It is filed as cell-based. The protocol:
as §1

Data set [2] concerns Streptococcus faecalis ATCC 8043. Put plainly: MIC, antibacterial activity on heart infusion agar. It is filed as cell-based. The settings on record: inoculum 10^6 CFU/ml. The protocol: as §1
Data set [3] relates to Pseudomonas aeruginosa IID 1052. Put plainly: MIC, antibacterial activity on heart infusion agar. It is filed as cell-based. The settings on record: inoculum 10^6 CFU/ml. As to the method: as §1
Data set [4] deals with Staphylococcus epidermidis IID 866. Put plainly: MIC, antibacterial activity on heart infusion agar. Format: cell-based. The conditions noted are these: inoculum 10^6 CFU/ml. As to the method: as §1
For another data set, the system named is Bacillus licheniformis. Put plainly: MIC, antibacterial activity on heart infusion agar. Format: cell-based. The settings on record: inoculum 10^6 CFU/ml. As to the method:
as §1

For data set [5], the system named is Staphylococcus aureus TPR-23. Kind of data set: MIC, antibacterial activity on heart infusion agar. The settings on record: inoculum 10^6 CFU/ml. Format: cell-based. The protocol: as §1
Data set [6] deals with Bacillus subtilis ATCC 6633. Kind of data set: MIC, antibacterial activity on heart infusion agar. The conditions noted are these: inoculum 10^6 CFU/ml. Format: cell-based. As to the method: as §1
Data set [7] deals with Staphylococcus epidermidis TPR-25. Kind of data set: MIC, antibacterial activity on heart infusion agar. Format: cell-based. The settings on record: inoculum 10^6 CFU/ml. The protocol:
as §1

The test system of data set [8] is Staphylococcus aureus Smith. Put plainly: MIC, antibacterial activity on heart infusion agar. Format: cell-based. The conditions noted are these: inoculum 10^6 CFU/ml. As to the method: as §1
Data set [9] has as its system Staphylococcus aureus FDA 209P. Put plainly: MIC, antibacterial activity on heart infusion agar. It is filed as cell-based. The conditions noted are these: inoculum 10^6 CFU/ml. The protocol: as §1
Data set [10] can be described thus: Improving the feed efficiency when incorporated into feeds. Format: in vivo. The settings on record: incorporated into feeds for poultry, hogs, etc.
The test system of a further data set is yeasts. Kind of data set: Physiological properties: growth inhibition. The settings on record: in words. It is filed as cell-based.
Data set [11] can be described thus: Classification of Nature (basic, acidic or neutral). It is filed as physicochemical. The conditions noted are these: measured as the sodium salt.
The subject of the next data set is gram-positive bacteria. Put plainly: Physiological properties: growth inhibition. It is filed as cell-based. The settings on record: in words.
The subject of data set [12] is protozoa as hog dysentery, coccidium, toxoplasma and trypanosoma. Kind of data set: Physiological properties: growth inhibition. It is filed as cell-based. The settings on record: in words.
The nature of a further data set: Solubility in solvents. Format: physicochemical. The settings on record: measured as the sodium salt.
Data set [13] has as its system plant pathogenic microorganisms. Put plainly: Physiological properties: growth inhibition. Format: cell-based. The conditions noted are these: in words.

The structures appear in SMILES notation. “Also recorded” adds a separate entry of the source. Where only a bound is given, the exact number is not on record here.

As for `CC/C=C(\C[C@@]1(C)COC2(CC[C@@](C)([C@H]3C[C@H](O[C@@H]4C[C@@H](O)[C@H](OC)[C@@H](C)O4)[C@@H](C)C4(O[C@@H](C5O[C@@](O)(CO)[C@H](C)C[C@@H]5C)C[C@H]4C)O3)O2)C[C@@H]1O)C(=O)C(C)CC(C)C(=O)[O-].[Na+]` (some centres unmarked) [TM-531 C], the “activity against gram-negative bacteria” value in the data set on gram-negative bacteria is given as “ineffective”. For the same compound, the “MIC (minimum inhibition concentration)” value in the data set on Micrococcus luteus NIHJ is 12.5 µg/mL; in data set [1], over 100 µg/mL; in [2] it was 12.5 µg/mL; in data set [3], over 100 µg/mL; in data set [4], 25 µg/mL; against Bacillus licheniformis, 12.5 µg/mL. Besides, the “MIC (minimum inhibition concentration)” value came out at 50 µg/mL in data set [5]; 25 µg/mL in data set [6]; 25 µg/mL in [7]; 25 µg/mL in [8]; 12.5 µg/mL in data set [9]. The “improving the feed efficiency” value in [10] is recorded as “effective”. Also, the activity against yeasts result in the data set on yeasts was “ineffective”. Besides, the “Classification of Nature (basic, acidic or neutral)” value in data set [11] was “Acidic”. Besides, the “growth inhibition of gram-positive bacteria” value in the data set on gram-positive bacteria is recorded as “inhibits the growth; also recorded: excellent growth inhibitory activity”. Also, the “growth inhibition of protozoa” value in data set [12] is “inhibits the growth; also recorded: excellent growth inhibitory activity”. Besides, the “Solubility in organic solvents” value in the data set “Solubility in solvents” (methanol, ethanol, acetone, ethyl acetate, n-hexane, chloroform and benzene) is listed as “soluble”. For the same compound, the Solubility in water entry in “Solubility in solvents” (water) is “Insoluble”. Besides, the “growth inhibition of plant pathogenic microorganisms” value in [13] is given as “inhibits the growth; also recorded: excellent growth inhibitory activity”.
